In one data set the target is MCL-1 (Homo sapiens, UniProt Q07820, K194A/K197A/R201A). Put plainly: Protein-protein interaction assay MCL-1/Noxa BH3 peptide, TR-FRET (MCL-1 assay, Assay 1). The format is binding. The note with it: MCL-1 Assay [M] (median), MBP-MCL-1 / Noxa BH3 peptide. The method, then:
The dose-dependent inhibition by the compounds described in this invention of the interaction between MCL-1 and the BH3 domain of Noxa (both human) was determined using a steady state binding competition assay with time-resolved fluorescence energy transfer (TR-FRET) readout. For that purpose MCL-1 (amino acids 173-321, N-terminal fused to Maltose Binding Protein (MBP), SEQ ID 1) and a synthetic Noxa BH3-derived peptide of sequence Biotin-PEG2-PEG2-PAELEVE-Nva-[…]-amide (SEQ ID 2) served as protein receptor and tracer ligand respectively. The MBP-MCL-1 was purchased from Beryllium (Bedford, Mass., USA). The expression and purification of this protein construct has been described elsewhere (DOI:10.1371/journal.pone.0125010). The Noxa BH3-derived peptide can be obtained from e.g. Biosyntan (Berlin, Germany).
For that, 100-fold concentrated DMSO solutions were prepared by serial dilutions (1:3.4) of a 2 mM stock solution in a clear, 384-well microtiter plate (Greiner Bio-One, Frickenhausen, Germany). From there, 50 nl were transferred in a dark test plate (Greiner Bio-One, Frickenhausen, Germany). The assay was initiated by addition of 2 μl of a 2,5-fold concentrated MBP-MCL-1 solution (usually for a 1 nM end concentration in 5 μl reaction volume) in aqueous assay buffer [50 mM Tris/HCl pH 7, 100 mM sodium chloride (NaCl), 50 mM potassium fluoride (KF), 0.005% Tween-20, 2 mM DTT, 0.1% bovine gamma globulin (BGG)] to the compounds in the assay plate. This was followed by a 10-minute incubation step at 22° C. for pre-equilibration of the putative complex between MBP-MCL-1 and the compounds.
The mixture was incubated in the dark for one hour at 22° C. and then overnight at 4° C. The formation of MCL-1/Noxa complexes was determined by measuring the resonance energy transfer of the anti-MBP-Eu-cryptate antibody to the streptavidin-XL665 present in the reaction.
The resulting data (ratio) were normalized, taking 0% inhibition as the mean value of control measurements (usually 32 data points) where all reagents were included. In this case 50 nl DMSO were used instead of compounds. […] IC50 values were determined by regression analysis based on a 4 parameter equation (minimum, maximum, IC50, Hill; Y=Max+(Min−Max)/(1+(X/IC50)^Hill) using the Screener Software (Genedata).
(Time-resolved FRET reads energy transfer from a long-lived donor to a nearby acceptor.)

For data set [1], the system named is SUDHL5. Put plainly: Induction of caspase-3/7 activity in SUDHL5 cells (Assay 4). Type of data set: cell-based. As to conditions: SUDHL5, 3 hours treatment, Caspase-Glo 3/7, median, read-out: Caspase SUDHL5 [M] (median). The protocol:
(§1) Induction of Caspase-3/7 Activity Upon Treatment of Cells with Selected Compounds
(§2) The BH3-domain of MCL-1 sequesters pro-apoptotic proteins, thereby inhibiting apoptosis. In contrast, MCL-1 inhibitors are expected to antagonize this effect leading to an increase in apoptosis, which can be determined by measuring the activity of caspase-3/7.
(§3) The activity of caspase-3/7 was determined in DLBCL (Diffuse large B-cell lymphoma) cell lines (SUDHL5 and SUDHL10) upon treatment with different compounds, using the Caspase-Glo® 3/7 reagent from Promega (G8092).
(§4) As a control, medium without cells was also added to the plate. Cells were incubated in a humidified incubator at 37° C. overnight.
(§5) Rim wells were excluded. The cells were incubated for 3 hours in a humidified incubator at 37° C. After this incubation, 30 μl of Caspase-Glo® 3/7 reagent (Promega G8092) was added to each well using the Multidrop Combi Reagent Dispenser, followed by 1 hour incubation at 37° C. Finally, luminescence was read at 0.1 ms, with a gain of 3000 using the PHERAstar FS microplate reader (BMG Labtech).
(§6) For the evaluation of the results, the background measured with “medium-only” was subtracted from all other values. Then, the values were normalized to DMSO-only treated cells (every value was divided by the mean of the DMSO control).

Data set [2] has as its system SUDHL10. In words: Induction of caspase-3/7 activity in SUDHL10 cells (Assay 4). The format is cell-based. The note with it: SUDHL10, 3 hours treatment, Caspase-Glo 3/7, median, read-out: Caspase SUDHL10 [M] (median). The method, then:
as §1, §2, §3, §4, §5, §6

Data set [3] concerns SUDHL5. Put plainly: Induction of cytotoxicity in SUDHL5 cells, CellTiter-Glo (Assay 6). Type of data set: cell-based. The protocol: (§7) Induction of Cytotoxicity Upon Treatment of Cells with Selected Compounds
(§8) In principle, compounds that induce apoptosis will concomitantly induce cell cytotoxicity. Therefore, cytotoxicity assays were run in parallel in SUDHL5 and SUDHL10 cells.
(§9) As a control, medium without cells was also added to the plate. Cells were incubated in a humidified incubator at 37° C. overnight. […] Rim wells were excluded. The cells were incubated for 5 hours in a humidified incubator at 37° C. After this incubation, 30 μl of CellTiter-Glo® Luminescent Cell Viability reagent (Promega, G7573) was added to each well using the Multidrop Combi Reagent Dispenser, followed by 15 minutes incubation on a shaker at room temperature. Finally, luminescence was read at 0.1 ms, with a gain of 3000 using the PHERAstar FS microplate reader (BMG Labtech).
For orientation: In ATP-based viability assays light output follows the ATP content of the culture.

In data set [4] the test system is SUDHL10. In words: Induction of cytotoxicity in SUDHL10 cells, CellTiter-Glo (Assay 6). The format is cell-based. The method, then: as §7, §8, §9
Setting [5] is: SUDHL5, 5 hours incubation, median, read-out: Cytotox SUDHL5 [M] (median).
Where [6] appears, read: SUDHL10, 5 hours incubation, median, read-out: Cytotox SUDHL10 [M] (median).
Setting [7] is: Homo sapiens, SU-DHL10, 5 h, SUDHL10, 5 hours incubation, median, read-out: Cytotox SUDHL10 [M] (median).

Where a name gives a salt, the structure may show the parent alone. Read-outs that look alike come from different tables or passages of the source.

MCL-1, sequence (Q07820 173-321 K194A/K197A/R201A, looked up): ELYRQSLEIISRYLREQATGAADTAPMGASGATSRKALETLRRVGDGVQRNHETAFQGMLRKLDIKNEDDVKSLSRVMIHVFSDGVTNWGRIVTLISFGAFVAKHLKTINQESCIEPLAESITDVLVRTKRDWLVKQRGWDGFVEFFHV

Turning to `Cc1c2c(nn1C)CN(S(=O)(=O)c1ccc(N3CCOCC3)nc1)Cc1ccccc1Cn1c(C(=O)O)c(CCCOc3cccc4ccccc34)c3cccc-2c31` (single isomer, unassigned; enantiomer 1) [Example 18, (+)-4,5-Dimethyl-8-{[6-(morpholin-4-yl)pyridin-3-yl]sulfonyl}-17-[3-(naphthalen-1-yloxy)propyl]-7,8,9,14-tetrahydro-5H-indolo[1,7-bc]pyrazolo[4,3-e][2,8]benzodiazacycloundecine-16-carboxylic Acid (Enantiomer 1)], the IC50 against MCL-1 turned out to be 2.9e-08 M; with SUDHL5 [3] (setting [5]), 1.4e-06 M; with SUDHL10 [4] (setting [6]), 3.8e-06 M. Moreover, the EC50 in the data set on SUDHL5 [1] worked out at 9.2e-07 M; in the data set with SUDHL10 [2], 5.2e-06 M.
Regarding `Cc1c2c(nn1C)CN(C(=O)CC1CCOCC1)Cc1ccccc1Cn1c(C(=O)O)c(CCCOc3cccc4ccccc34)c3cccc-2c31` (single isomer, unassigned; enantiomer 1) [Example 22, (−)-4,5-Dimethyl-17-[3-(naphthalen-1-yloxy)propyl]-8-(tetrahydro-2H-pyran-4-ylacetyl)-7,8,9,14-tetrahydro-5H-indolo[1,7-bc]pyrazolo[4,3-e][2,8]benzodiazacycloundecine-16-carboxylic Acid (Enantiomer 1)], the IC50 at MCL-1 is 6.5e-07 M; in the data set on SUDHL5 [3] (setting [5]), 1.7e-05 M; in the data set with SUDHL10 [4] (setting [6]), more than 3.3e-05 M. The EC50 in the data set with SUDHL5 [1] was 1.4e-05 M; in the data set with SUDHL10 [2], more than 3.3e-05 M.
Take `Cc1c2c(nn1C)CN(C(=O)NC1CCOCC1)Cc1ccccc1Cn1c(C(=O)O)c(CCCOc3cccc4ccccc34)c3cccc-2c31` (single isomer, unassigned; enantiomer 1) [Example 25, (+)-4,5-Dimethyl-17-[3-(naphthalen-1-yloxy)propyl]-8-(tetrahydro-2H-pyran-4-ylcarbamoyl)-7,8,9,14-tetrahydro-5H-indolo[1,7-bc]pyrazolo[4,3-e][2,8]benzodiazacycloundecine-16-carboxylic Acid (Enantiomer 1)]: the values for the IC50 against MCL-1, in the data set with SUDHL5 [3] (setting [5]) and in the data set with SUDHL10 [4] (setting [7]) were 2.6e-07 M, more than 3.3e-05 M and more than 3.3e-05 M, respectively. The EC50 in the data set with SUDHL5 [1] (Homo sapiens, SU-DHL-5, 3 h) is more than 3.3e-05 M; in the data set with SUDHL10 [2] (Homo sapiens, SU-DHL10, 3 h) it was more than 3.3e-05 M.
As for `Cc1c2c(nn1C)CN(C(=O)NCC1CCOCC1)Cc1ccccc1Cn1c(C(=O)O)c(CCCOc3cccc4ccccc34)c3cccc-2c31` (single isomer, unassigned; enantiomer 1) [Example 28, (+)-4,5-Dimethyl-17-[3-(naphthalen-1-yloxy)propyl]-8-[(tetrahydro-2H-pyran-4-ylmethyl)carbamoyl]-7,8,9,14-tetrahydro-5H-indolo[1,7-bc]pyrazolo[4,3-e][2,8]benzodiazacycloundecine-16-carboxylic Acid (Enantiomer 1)], the IC50 against MCL-1 was 2.8e-07 M; in the data set with SUDHL5 [3] (setting [5]), more than 3.3e-05 M; in the data set on SUDHL10 [4] (setting [7]) it was more than 3.3e-05 M. The EC50 with SUDHL5 [1] is more than 3.3e-05 M; with SUDHL10 [2] (Homo sapiens, SU-DHL10, 3 h), more than 3.3e-05 M.
Turning to `Cc1c2c(nn1C)CNCc1ccccc1Cn1c(C(=O)O)c(CCCOc3cccc4ccccc34)c3cccc-2c31` (single isomer, unassigned; enantiomer 2) [Example 13, 4,5-Dimethyl-17-[3-(naphthalen-1-yloxy)propyl]-7,8,9,14-tetrahydro-5H-indolo[1,7-bc]pyrazolo-[4,3-e][2,8]benzodiazacycloundecine-16-carboxylic acid-Trifluoroacetic Acid Salt (Enantiomer 2)], the IC50 amounted to 1.7e-07 M on MCL-1; 1.7e-05 M with SUDHL5 [3] (read-out: Cytotox SUDHL5 [M] (median), SUDHL5, 5 hours incubation); 2.5e-05 M in the data set on SUDHL10 [4] (read-out: Cytotox SUDHL10 [M] (median), SUDHL10, 5 hours incubation). The figures for the EC50 in the data set on SUDHL5 [1] and in the data set on SUDHL10 [2] were 1.4e-05 M and more than 3.3e-05 M, respectively.
Consider `Cc1c2c(nn1C)CN(S(=O)(=O)c1ccc(N3CCOCC3)nc1)Cc1ccccc1Cn1c(C(=O)O)c(CCCOc3cccc4ccccc34)c3cccc-2c31` (single isomer, unassigned; enantiomer 2) [Example 19, (−)-4,5-Dimethyl-8-{[6-(morpholin-4-yl)pyridin-3-yl]sulfonyl}-17-[3-(naphthalen-1-yloxy)propyl]-7,8,9,14-tetrahydro-5H-indolo[1,7-bc]pyrazolo[4,3-e][2,8]benzodiazacycloundecine-16-carboxylic Acid (Enantiomer 2)], for which the IC50 against MCL-1 was 9.4e-07 M; in the data set with SUDHL5 [3] (setting [5]) it was 2.3e-05 M; in the data set on SUDHL10 [4] (setting [6]) it was more than 3.3e-05 M. In addition, the figures for the EC50 with SUDHL5 [1] and in the data set with SUDHL10 [2] were 1.7e-05 M and more than 3.3e-05 M, respectively.
In the case of `Cc1c2c(nn1C)CN(C(=O)CC1CCOCC1)Cc1ccccc1Cn1c(C(=O)O)c(CCCOc3cccc4ccccc34)c3cccc-2c31` (single isomer, unassigned; enantiomer 2) [Example 23, (+)-4,5-Dimethyl-17-[3-(naphthalen-1-yloxy)propyl]-8-(tetrahydro-2H-pyran-4-ylacetyl)-7,8,9,14-tetrahydro-5H-indolo[1,7-bc]pyrazolo[4,3-e][2,8]benzodiazacycloundecine-16-carboxylic Acid (Enantiomer 2)], the values for the IC50 on MCL-1, with SUDHL5 [3] (setting [5]) and in the data set with SUDHL10 [4] (setting [6]) were 3.9e-08 M, 4.4e-06 M and 1.1e-05 M, respectively. Besides, the EC50 with SUDHL5 [1] was 4.2e-06 M; with SUDHL10 [2] it was 1.2e-05 M.
Regarding `Cc1c2c(nn1C)CN(C(=O)NC1CCOCC1)Cc1ccccc1Cn1c(C(=O)O)c(CCCOc3cccc4ccccc34)c3cccc-2c31` (single isomer, unassigned; enantiomer 2) [Example 26, (−)-4,5-Dimethyl-17-[3-(naphthalen-1-yloxy)propyl]-8-(tetrahydro-2H-pyran-4-ylcarbamoyl)-7,8,9,14-tetrahydro-5H-indolo[1,7-bc]pyrazolo[4,3-e][2,8]benzodiazacycloundecine-16-carboxylic Acid (Enantiomer 2)], the IC50 is 3.8e-08 M against MCL-1, 1.6e-05 M with SUDHL5 [3] (setting [5]) and more than 3.3e-05 M in the data set with SUDHL10 [4] (setting [6]). Further, the EC50 was 1.8e-05 M in the data set with SUDHL5 [1] and more than 3.3e-05 M in the data set on SUDHL10 [2].

Values taken from US20210253598A1, “ARYL ANNULATED MACROCYCLIC INDOLE DERIVATIVES” (priority 2017, published 2021).
